Test results from patent US11279691B2, “Substituted pyridine and pyrazine compounds as PDE4 inhibitors” (Dart Neuroscience LLC, priority 2013, dated 2022).

Biological target: T1, PDE4D3 (Homo sapiens, UniProt Q08499)
T1 construct: GST
Format: biochemical
Conditions: GST-tagged PDE4D3, 200 nM FAM-cAMP, 11-point dose-response; read-out: PD4d3 pEC50 (converted)

T1 sequence (Q08499 1-673 isoform Q08499-2): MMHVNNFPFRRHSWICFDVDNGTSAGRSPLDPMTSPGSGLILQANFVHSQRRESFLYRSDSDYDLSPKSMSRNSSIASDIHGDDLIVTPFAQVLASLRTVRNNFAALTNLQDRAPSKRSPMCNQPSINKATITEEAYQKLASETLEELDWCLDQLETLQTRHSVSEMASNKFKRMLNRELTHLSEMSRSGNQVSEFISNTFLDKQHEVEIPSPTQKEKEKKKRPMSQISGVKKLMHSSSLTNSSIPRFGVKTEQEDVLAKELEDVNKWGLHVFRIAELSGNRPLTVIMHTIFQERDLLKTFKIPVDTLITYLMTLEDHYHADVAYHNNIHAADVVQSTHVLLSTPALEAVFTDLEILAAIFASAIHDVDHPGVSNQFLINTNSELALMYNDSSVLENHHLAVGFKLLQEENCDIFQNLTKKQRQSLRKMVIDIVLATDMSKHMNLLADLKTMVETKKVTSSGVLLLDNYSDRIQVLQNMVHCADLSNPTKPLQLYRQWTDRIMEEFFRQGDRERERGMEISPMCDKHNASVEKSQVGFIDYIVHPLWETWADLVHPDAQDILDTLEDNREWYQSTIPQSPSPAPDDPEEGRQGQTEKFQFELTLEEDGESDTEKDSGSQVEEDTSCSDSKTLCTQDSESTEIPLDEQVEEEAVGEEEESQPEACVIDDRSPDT

| SMILES | EC50 [nM] |
| --- | --- |
| CCOc1ncc(Cn2nc(N)cc2C)cc1-c1cccc(Cl)c1 [Example 317, 1-{[5-(3-Chlorophenyl)-6-ethoxypyridin-3-yl]methyl}-5-methyl-1H-pyrazol-3-amine] | 100 to 1000 |
| COc1ncc(Cc2cnc(OCC(C)(C)O)nc2)cc1-c1cccc(Cl)c1 [Example 318, 1-[(5-{[5-(3-Chlorophenyl)-6-methoxypyridin-3-yl]methyl}pyrimidin-2-yl)oxy]-2-methylpropan-2-ol] | 1000 to 10000 |
| CCOc1ncc(Cn2c(CO)cnc2C)cc1-c1cccc(Cl)c1 [Example 319, (1-{[5-(3-Chlorophenyl)-6-ethoxypyridin-3-yl]methyl}-2-methyl-1H-imidazol-5-yl)methanol] | 100 to 1000 |
| CCOc1ncc(Cn2nc(C)cc2CO)cc1-c1cccc(Cl)c1 [Example 320, (1-{[5-(3-Chlorophenyl)-6-ethoxypyridin-3-yl]methyl}-3-methyl-1H-pyrazol-5-yl)methanol] | > 10000 |
| Cc1nc(CO)cn1Cc1cnc(OC(F)F)c(-c2cccc(Cl)c2)c1 [Example 321, (1-{[5-(3-Chlorophenyl)-6-(difluoromethoxy)pyridin-3-yl]methyl}-2-methyl-1H-imidazol-4-yl)methanol] | 100 to 1000 |
| COc1ncc(Cn2cc(CO)nc2C)nc1-c1cccc(Cl)c1 [Example 322, (1-{[6-(3-Chlorophenyl)-5-methoxypyrazin-2-yl]methyl}-2-methyl-1H-imidazol-4-yl)methanol] | 100 to 1000 |
| CCOc1ncc(Cn2nc(CO)cc2C)nc1-c1cccc(Cl)c1 [Example 323, (1-{[6-(3-Chlorophenyl)-5-ethoxypyrazin-2-yl]methyl}-5-methyl-1H-pyrazol-3-yl)methanol] | 1000 to 10000 |
| CCOc1ncc(Cn2cc(CO)nc2C)nc1-c1cccc(Cl)c1 [Example 324, (1-{[6-(3-Chlorophenyl)-5-ethoxypyrazin-2-yl]methyl}-2-methyl-1H-imidazol-4-yl)methanol] | 100 to 1000 |
| CCOc1ncc(Cn2nc(CO)cc2C)cc1-c1cccc(Cl)c1 [Example 325, (1-{[5-(3-Chlorophenyl)-6-ethoxypyridin-3-yl]methyl}-5-methyl-1H-pyrazol-3-yl)methanol] | < 100 |
| CCOc1ncc(Cn2cc(CO)nc2C)cc1-c1cccc(Cl)c1 [Example 326, (1-{[5-(3-Chlorophenyl)-6-ethoxypyridin-3-yl]methyl}-2-methyl-1H-imidazol-4-yl)methanol] | < 100 |
| CCOc1ncc(Cn2cnc(CO)n2)cc1-c1cccc(OC)c1 [Example 327, (1-{[6-Ethoxy-5-(3-methoxyphenyl)pyridin-3-yl]methyl}-1H-1,2,4-triazol-3-yl)methanol] | < 100 |
| CCOc1ncc(Cn2cnc(CO)n2)cc1-c1ccc(Cl)cc1 [Example 328, (1-{[5-(4-Chlorophenyl)-6-ethoxypyridin-3-yl]methyl}-1H-1,2,4-triazol-3-yl)methanol] | 100 to 1000 |
| CCOc1ncc(Cn2cnc(CO)n2)cc1-c1cncc(Cl)c1 [Example 329, (1-{[5-(5-Chloropyridin-3-yl)-6-ethoxypyridin-3-yl]methyl}-1H-1,2,4-triazol-3-yl)methanol] | 1000 to 10000 |
| CCOc1ncc(Cn2cnc(CO)n2)cc1-c1ccc(Cl)c(Cl)c1 [Example 330, (1-{[5-(3,4-Dichlorophenyl)-6-ethoxypyridin-3-yl]methyl}-1H-1,2,4-triazol-3-yl)methanol] | 100 to 1000 |
| CCOc1ncc(Cn2cnc(CO)n2)cc1-c1ccc(F)c(C)c1 [Example 331, (1-{[6-Ethoxy-5-(4-fluoro-3-methylphenyl)pyridin-3-yl]methyl}-1H-1,2,4-triazol-3-yl)methanol] | 100 to 1000 |
| CCOc1ncc(Cn2cnc(CO)n2)cc1-c1cccc(C(F)(F)F)c1 [Example 332, [1-({6-Ethoxy-5-[3-(trifluoromethyl)phenyl]pyridin-3-yl}methyl)-1H-1,2,4-triazol-3-yl]methanol] | 1000 to 10000 |
| CCOc1ncc(Cn2cnc(CO)n2)cc1-c1cccc(OC(F)(F)F)c1 [Example 333, [1-({6-Ethoxy-5-[3-(trifluoromethoxy)phenyl]pyridin-3-yl}methyl)-1H-1,2,4-triazol-3-yl]methanol] | 100 to 1000 |
| CCOc1cccc(-c2cc(Cn3cnc(CO)n3)cnc2OCC)c1 [Example 334, (1-{[6-Ethoxy-5-(3-ethoxyphenyl)pyridin-3-yl]methyl}-1H-1,2,4-triazol-3-yl)methanol] | 100 to 1000 |
| CCOc1ncc(Cn2cnc(CO)n2)cc1-c1cccc(N(C)C)c1 [Example 335, [1-({5-[3-(Dimethylamino)phenyl]-6-ethoxypyridin-3-yl}methyl)-1H-1,2,4-triazol-3-yl]methanol] | 1000 to 10000 |
| COc1ncc(Cn2cnc(CO)n2)cc1-c1cccc(Cl)c1 [Example 336, (1-{[5-(3-Chlorophenyl)-6-methoxypyridin-3-yl]methyl}-1H-1,2,4-triazol-3-yl)methanol] | < 100 |
| CCOc1ncc(Cn2cnc(CO)n2)cc1-c1ccc(F)c(Cl)c1 [Example 337, (1-{[5-(3-Chloro-4-fluorophenyl)-6-ethoxypyridin-3-yl]methyl}-1H-1,2,4-triazol-3-yl)methanol] | < 100 |
| CCOc1ncc(Cn2cnc(CO)n2)cc1-c1cc(F)cc(F)c1 [Example 338, (1-{[5-(3,5-Difluorophenyl)-6-ethoxypyridin-3-yl]methyl}-1H-1,2,4-triazol-3-yl)methanol] | 100 to 1000 |

| SMILES | EC50 [nM] |
| --- | --- |
| CCOc1ncc(Cn2cnc(CO)n2)cc1-c1ccnc(C(F)(F)F)c1 [Example 339, [1-({6-Ethoxy-5-[2-(trifluoromethyl)pyridin-4-yl]pyridin-3-yl}methyl)-1H-1,2,4-triazol-3-yl]methanol] | 1000 to 10000 |
| CCOc1ncc(Cn2cnc(CO)n2)cc1-c1ccc(F)c(F)c1 [Example 340, (1-{[5-(3,4-Difluorophenyl)-6-ethoxypyridin-3-yl]methyl}-1H-1,2,4-triazol-3-yl)methanol] | < 100 |
| CCOc1ncc(Cn2cnc(CO)n2)cc1-c1cccc(F)c1 [Example 341, (1-{[6-Ethoxy-5-(3-fluorophenyl)pyridin-3-yl]methyl}-1H-1,2,4-triazol-3-yl)methanol] | 100 to 1000 |
| CCOc1ncc(Cn2cnc(CO)n2)cc1-c1ccc(F)cc1 [Example 342, (1-{[6-Ethoxy-5-(4-fluorophenyl)pyridin-3-yl]methyl}-1H-1,2,4-triazol-3-yl)methanol] | 100 to 1000 |
| COc1cc(-c2cc(Cn3cc(CO)nc3C)cnc2OC)ccc1F [Example 343, (1-{[5-(4-Fluoro-3-methoxyphenyl)-6-methoxypyridin-3-yl]methyl}-2-methyl-1H-imidazol-4-yl)methanol] | 1000 to 10000 |
| COc1ncc(Cn2cc(CO)nc2C)cc1-c1ccc(F)cc1 [Example 344, (1-{[5-(4-Fluorophenyl)-6-methoxypyridin-3-yl]methyl}-2-methyl-1H-imidazol-4-yl)methanol] | 100 to 1000 |
| COc1ncc(Cn2cc(CO)nc2C)cc1-c1ccc(F)c(F)c1 [Example 345, (1-{[5-(3,4-Difluorophenyl)-6-methoxypyridin-3-yl]methyl}-2-methyl-1H-imidazol-4-yl)methanol] | 100 to 1000 |
| COc1ncc(Cn2cc(CO)nc2C)cc1-c1cccc(Cl)c1 [Example 346, (1-{[5-(3-Chlorophenyl)-6-methoxypyridin-3-yl]methyl}-2-methyl-1H-imidazol-4-yl)methanol] | 100 to 1000 |
| COc1ncc(Cc2cnc(N)nc2)cc1-c1ccnc(C#N)c1 [Example 347, 4-{5-[(2-Aminopyrimidin-5-yl)methyl]-2-methoxypyridin-3-yl}pyridine-2-carbonitrile] | 100 to 1000 |
| N#CCc1ncc(Cc2cnc(OCC(F)F)c(-c3cccc(Cl)c3)c2)cn1 [Example 348, 2-(5-{[5-(3-Chlorophenyl)-6-(2,2-difluoroethoxy)pyridin-3-yl]methyl}pyrimidin-2-yl)acetonitrile] | < 100 |
| CCOc1cc(-c2cc(Cc3cnc(N)nc3)cnc2OC)ccn1 [Example 349, 5-{[5-(2-Ethoxypyridin-4-yl)-6-methoxypyridin-3-yl]methyl}pyrimidin-2-amine] | < 100 |
| CCOc1ncc(Cc2cnc(N)nc2)cc1-c1ccc(F)cc1 [Example 350, 5-{[6-Ethoxy-5-(4-fluorophenyl)pyridin-3-yl]methyl}pyrimidin-2-amine] | < 100 |
| CCOc1ncc(Cc2cnc(N)nc2)cc1-c1ccc(Cl)cc1 [Example 351, 5-{[5-(4-Chlorophenyl)-6-ethoxypyridin-3-yl]methyl}pyrimidin-2-amine] | 100 to 1000 |
| CCOc1ncc(Cc2cnc(N)nc2)cc1-c1ccc(F)c(C)c1 [Example 352, 5-{[6-Ethoxy-5-(4-fluoro-3-methylphenyl)pyridin-3-yl]methyl}pyrimidin-2-amine] | < 100 |
| CCOc1ncc(Cc2cnc(N)nc2)cc1-c1ccc(F)c(F)c1 [Example 353, 5-{[5-(3,4-Difluorophenyl)-6-ethoxypyridin-3-yl]methyl}pyrimidin-2-amine] | < 100 |
| COc1cc(-c2cc(Cc3cnc(N)nc3)cnc2OC)ccc1F [Example 354, 5-{[5-(4-Fluoro-3-methoxyphenyl)-6-methoxypyridin-3-yl]methyl}pyrimidin-2-amine] | 100 to 1000 |
| CCOc1cc(-c2cc(Cc3cnc(N)nc3)cnc2OC)ccc1F [Example 355, 5-{[5-(3-Ethoxy-4-fluorophenyl)-6-methoxypyridin-3-yl]methyl}pyrimidin-2-amine] | 100 to 1000 |
| COc1ncc(Cc2cnc(N)nc2)cc1-c1cccc(C#N)c1 [Example 356, 3-{5-[(2-Aminopyrimidin-5-yl)methyl]-2-methoxypyridin-3-yl}benzonitrile] | 100 to 1000 |
| COc1ncc(Cc2cnc(N)nc2)cc1-c1ccc(F)c(C)c1 [Example 357, 5-{[5-(4-Fluoro-3-methylphenyl)-6-methoxypyridin-3-yl]methyl}pyrimidin-2-amine] | 100 to 1000 |
| COc1ncc(Cc2cnc(CC#N)nc2)cc1-c1ccc(F)c(F)c1 [Example 358, 2-(5-{[5-(3,4-Difluorophenyl)-6-methoxypyridin-3-yl]methyl}pyrimidin-2-yl)acetonitrile] | < 100 |
| COc1ncc(Cc2cnc(N)nc2)cc1-c1ccc(F)c(Cl)c1 [Example 359, 5-{[5-(3-Chloro-4-fluorophenyl)-6-methoxypyridin-3-yl]methyl}pyrimidin-2-amine] | < 100 |
